Measurements published in PMC12669039 (Nature Microbiology, 2025).

Molecular target: T1, HSV-1 helicase–primase (HP) complex (UL5/UL52/UL8) (Human alphaherpesvirus 1 strain 17, UniProt P10189+P10236)
T1 sequence (P10189 1-882): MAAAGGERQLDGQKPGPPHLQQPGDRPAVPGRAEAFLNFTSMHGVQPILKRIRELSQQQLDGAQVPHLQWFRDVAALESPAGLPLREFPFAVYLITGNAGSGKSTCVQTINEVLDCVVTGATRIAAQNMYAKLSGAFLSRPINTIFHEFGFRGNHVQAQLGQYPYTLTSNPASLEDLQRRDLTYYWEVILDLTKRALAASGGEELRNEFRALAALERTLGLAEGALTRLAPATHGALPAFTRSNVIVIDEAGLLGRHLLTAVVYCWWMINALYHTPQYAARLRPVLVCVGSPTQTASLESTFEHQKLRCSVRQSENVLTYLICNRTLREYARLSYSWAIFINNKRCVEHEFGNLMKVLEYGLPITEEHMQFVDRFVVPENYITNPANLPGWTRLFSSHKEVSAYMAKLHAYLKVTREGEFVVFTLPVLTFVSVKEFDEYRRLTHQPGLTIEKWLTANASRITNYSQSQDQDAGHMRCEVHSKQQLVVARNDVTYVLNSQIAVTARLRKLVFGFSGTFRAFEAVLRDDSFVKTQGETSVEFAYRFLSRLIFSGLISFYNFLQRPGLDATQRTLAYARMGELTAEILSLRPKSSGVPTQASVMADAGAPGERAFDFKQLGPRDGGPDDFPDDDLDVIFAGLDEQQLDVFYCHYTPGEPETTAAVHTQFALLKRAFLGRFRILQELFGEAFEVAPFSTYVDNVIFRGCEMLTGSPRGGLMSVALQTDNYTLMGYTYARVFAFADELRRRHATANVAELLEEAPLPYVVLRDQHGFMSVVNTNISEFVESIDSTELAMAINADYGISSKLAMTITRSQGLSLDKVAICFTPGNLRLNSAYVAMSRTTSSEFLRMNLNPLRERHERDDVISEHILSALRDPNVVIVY
T1 sequence (P10236 1-1058): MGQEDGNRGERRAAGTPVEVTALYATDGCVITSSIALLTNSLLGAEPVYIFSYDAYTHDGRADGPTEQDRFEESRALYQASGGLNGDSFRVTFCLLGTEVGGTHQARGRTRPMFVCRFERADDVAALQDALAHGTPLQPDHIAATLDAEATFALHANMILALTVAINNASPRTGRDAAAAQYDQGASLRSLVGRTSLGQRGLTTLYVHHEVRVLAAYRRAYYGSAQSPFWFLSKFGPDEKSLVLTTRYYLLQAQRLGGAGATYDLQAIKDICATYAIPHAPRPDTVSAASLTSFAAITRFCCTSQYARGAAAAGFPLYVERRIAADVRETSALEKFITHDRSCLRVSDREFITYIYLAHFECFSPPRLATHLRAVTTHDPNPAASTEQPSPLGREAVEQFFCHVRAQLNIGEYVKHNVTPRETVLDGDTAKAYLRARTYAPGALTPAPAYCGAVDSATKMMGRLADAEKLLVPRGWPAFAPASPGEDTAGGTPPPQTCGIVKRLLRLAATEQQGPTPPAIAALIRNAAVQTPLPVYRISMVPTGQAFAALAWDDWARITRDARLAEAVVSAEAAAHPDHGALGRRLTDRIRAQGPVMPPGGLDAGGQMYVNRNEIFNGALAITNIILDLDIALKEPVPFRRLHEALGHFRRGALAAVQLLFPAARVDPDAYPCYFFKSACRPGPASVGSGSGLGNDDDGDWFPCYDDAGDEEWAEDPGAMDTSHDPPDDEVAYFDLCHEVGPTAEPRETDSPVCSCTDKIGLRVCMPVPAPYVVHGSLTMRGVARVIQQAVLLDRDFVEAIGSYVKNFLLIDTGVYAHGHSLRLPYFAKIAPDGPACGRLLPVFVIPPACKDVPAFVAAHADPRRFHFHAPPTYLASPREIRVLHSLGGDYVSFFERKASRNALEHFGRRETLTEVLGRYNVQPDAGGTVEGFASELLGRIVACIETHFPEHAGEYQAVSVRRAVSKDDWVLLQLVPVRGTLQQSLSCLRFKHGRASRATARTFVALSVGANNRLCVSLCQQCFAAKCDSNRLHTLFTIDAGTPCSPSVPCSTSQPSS
T1 sequence (P10192 1-750 partner): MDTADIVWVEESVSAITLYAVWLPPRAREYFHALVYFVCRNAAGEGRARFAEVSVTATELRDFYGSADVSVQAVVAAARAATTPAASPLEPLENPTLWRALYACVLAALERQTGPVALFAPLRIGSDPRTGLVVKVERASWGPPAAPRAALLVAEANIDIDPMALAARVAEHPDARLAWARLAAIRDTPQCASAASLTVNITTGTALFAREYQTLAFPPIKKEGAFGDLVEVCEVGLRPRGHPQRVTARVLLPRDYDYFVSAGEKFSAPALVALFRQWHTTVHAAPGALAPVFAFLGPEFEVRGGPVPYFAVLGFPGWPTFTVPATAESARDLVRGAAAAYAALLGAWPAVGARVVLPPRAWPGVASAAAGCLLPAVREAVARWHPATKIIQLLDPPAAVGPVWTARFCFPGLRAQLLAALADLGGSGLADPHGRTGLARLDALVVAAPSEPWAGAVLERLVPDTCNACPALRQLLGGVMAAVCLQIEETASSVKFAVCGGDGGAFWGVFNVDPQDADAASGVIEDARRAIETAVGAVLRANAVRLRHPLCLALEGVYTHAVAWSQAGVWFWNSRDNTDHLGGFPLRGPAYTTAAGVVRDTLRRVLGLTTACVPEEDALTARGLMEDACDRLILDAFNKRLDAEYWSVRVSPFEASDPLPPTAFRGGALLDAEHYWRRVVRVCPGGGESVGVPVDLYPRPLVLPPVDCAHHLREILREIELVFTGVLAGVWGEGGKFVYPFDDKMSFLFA
Experiment: fluorescent forked-DNA unwinding
Assay type: biochemical

SMILES	IC50
Cc1cccc(C)c1N(CC(=O)Nc1ccc(-c2ncon2)cc1)C(=O)C1CCS(=O)(=O)CC1 [AMNV, amenamevir]	3.5 nM
Cc1nc(N(C)C(=O)Cc2ccc(-c3ccccn3)cc2)sc1S(N)(=O)=O [PTV, pritelivir]	11.1 nM
